Values quoted from earlier work as cited in US8221990B2, “Screening GPR12 receptor for substances having Nesfatin-1-like action, or which regulate Nesfatin-1 action” (Teijin Pharma Limited, priority 2007, dated 2012).

Target: T1, GPR12 (Homo sapiens, UniProt P47775)
T1 sequence (P47775 1-334): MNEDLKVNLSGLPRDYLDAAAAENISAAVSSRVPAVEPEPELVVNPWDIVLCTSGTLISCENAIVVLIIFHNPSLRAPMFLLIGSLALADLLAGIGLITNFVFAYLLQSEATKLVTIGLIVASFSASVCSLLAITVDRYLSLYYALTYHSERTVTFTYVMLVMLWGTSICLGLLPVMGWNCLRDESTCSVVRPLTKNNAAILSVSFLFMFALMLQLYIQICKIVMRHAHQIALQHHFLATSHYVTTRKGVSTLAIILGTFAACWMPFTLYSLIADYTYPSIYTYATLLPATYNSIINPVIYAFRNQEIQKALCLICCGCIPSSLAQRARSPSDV
Settings: cells in which a GPR12 gene is introduced and expressed; cited from earlier work

| SMILES | cytoplasmic calcium ion concentration |
| --- | --- |
| CCCCCCCCCCCCC/C=C/[C@@H](O)[C@@H](N)COP(=O)([O-])OCC[N+](C)(C)C [SPC, sphingosylphosphorylcholine] | increase in cytoplasmic calcium ion concentration occurs |
| CCCCCCCCCCCCC/C=C/[C@@H](O)[C@@H](N)COP(=O)(O)O [S1P, sphingosine 1-phosphate] | increase in cytoplasmic calcium ion concentration occurs |
